Values of other authors, collected in patent US20160289773A1 (priority 2013, published 2016).
“And” between values parts separate entries of the source, which are not always exact repeats. Equal entries are not always repeated.

Experiments:
[1] = tested on: Haemonchus contortus; details: in vivo
[2] = tested on: Haemonchus contortus; details: Zaire isolate

## c1ccc([C@H]2CN3CCSC3=N2)cc1 [Levamisole, levamisole]
[1]
  Levamisole efficacy: 100% and > 99%
[2]
  levamisole susceptibility status of isolate: susceptible
